Read-outs that look alike come from different tables or passages of the source.
Columns and labels:
P-gp/BCRP/MRP2 = experiment: ABC efflux transporter substrate investigation on Caco-2 cells; settings: for efflux ratio at 0.5 µM / efflux ratio at 5 µM / efflux ratio at 50 µM: human
[1] = Recovery in dialysis device and stability in plasma during dialysis; assay type: in vitro ADME; settings: 0.2, 2 and 10 µM, all species
Experimental: At three test concentrations (0.2, 2 and 10 µM), the plasma protein binding rate of iruplinalkib is as follows (Fig. 3a). […] With the increase of concentration, the protein binding rates of iruplinalkib in rat plasma decreased gradually, showing a certain concentration dependence, and there was no concentration dependence of protein binding rate observed in other species plasma.

OAT1 = experiment: Uptake inhibitor investigation in HEK293 cells expressing transporter; assay type: in vitro ADME
CYP1A2 = experiment: Hepatic enzyme induction in human hepatocytes; assay type: in vitro ADME; settings: 10 µM, human hepatocytes from three donors
Experimental: Human hepatocytes derived from three donors were used for evaluating for hepatic enzyme inducing activity. […] The gene expression related to cytochrome P450 isoenzyme CYP3A4 in hepatocytes of one of the three donors increased with iruplinalkib 1 µM.

MATE1 [2] = target: T1, MATE1 (Homo sapiens, UniProt Q96FL8); experiment: in vitro
T1 sequence (Q96FL8 1-570): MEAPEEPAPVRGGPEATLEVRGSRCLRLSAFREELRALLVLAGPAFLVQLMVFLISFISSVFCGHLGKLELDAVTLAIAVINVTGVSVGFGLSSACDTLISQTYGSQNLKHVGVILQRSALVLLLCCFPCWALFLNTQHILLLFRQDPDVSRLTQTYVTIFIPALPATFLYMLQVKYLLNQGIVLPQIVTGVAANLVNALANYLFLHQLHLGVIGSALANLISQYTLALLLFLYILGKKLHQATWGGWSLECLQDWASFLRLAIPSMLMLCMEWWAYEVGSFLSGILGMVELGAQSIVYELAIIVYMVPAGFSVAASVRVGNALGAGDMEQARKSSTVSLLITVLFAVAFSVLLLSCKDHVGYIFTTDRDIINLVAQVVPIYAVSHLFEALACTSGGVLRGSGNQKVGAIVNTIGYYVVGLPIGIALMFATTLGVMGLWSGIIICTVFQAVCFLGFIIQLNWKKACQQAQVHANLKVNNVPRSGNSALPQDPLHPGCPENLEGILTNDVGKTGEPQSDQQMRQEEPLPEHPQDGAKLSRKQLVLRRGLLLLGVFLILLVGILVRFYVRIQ
Experimental: (§1) Using a stably transfected cell line of HEK293 expressing transporter OATP1B1, OATP1B3 or OCT2, formal substrate investigation tests were performed for three concentration gradients (30 µM, 3 µM, 0.3 µM) of iruplinalkib.

AUR2 = AUR2 (Homo sapiens, UniProt O14965); experiment: Z'-LYTE kinase selectivity; assay type: biochemical
Chain of AUR2 (O14965 whole entry): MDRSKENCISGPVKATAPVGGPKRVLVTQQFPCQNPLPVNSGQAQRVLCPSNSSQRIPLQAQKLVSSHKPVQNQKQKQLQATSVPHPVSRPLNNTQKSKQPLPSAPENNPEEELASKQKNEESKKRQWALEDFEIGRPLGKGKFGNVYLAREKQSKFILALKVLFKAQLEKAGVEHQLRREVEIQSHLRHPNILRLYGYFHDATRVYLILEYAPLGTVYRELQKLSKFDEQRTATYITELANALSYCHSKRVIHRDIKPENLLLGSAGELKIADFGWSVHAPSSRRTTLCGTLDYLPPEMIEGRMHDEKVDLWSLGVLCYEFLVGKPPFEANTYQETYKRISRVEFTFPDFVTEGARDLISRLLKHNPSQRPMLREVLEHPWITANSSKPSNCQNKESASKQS

MATE1 [3] = target: T1, MATE1
Experimental: as §1

CYP2B6 = experiment: Hepatic enzyme induction in human hepatocytes (gene expression); assay type: in vitro ADME
OAT3 = experiment: Uptake inhibitor investigation in HEK293 cells expressing transporter; assay type: in vitro ADME
MRP2 = target: T2, MRP2 (Homo sapiens, UniProt Q92887); experiment: MRP2 inhibitor investigation; assay type: in vitro ADME
T2 construct: host or cells: membrane vesicles ('Membrane capsule'), MRP2 versus NC control, with ATP or AMP
T2 sequence (Q92887 whole entry): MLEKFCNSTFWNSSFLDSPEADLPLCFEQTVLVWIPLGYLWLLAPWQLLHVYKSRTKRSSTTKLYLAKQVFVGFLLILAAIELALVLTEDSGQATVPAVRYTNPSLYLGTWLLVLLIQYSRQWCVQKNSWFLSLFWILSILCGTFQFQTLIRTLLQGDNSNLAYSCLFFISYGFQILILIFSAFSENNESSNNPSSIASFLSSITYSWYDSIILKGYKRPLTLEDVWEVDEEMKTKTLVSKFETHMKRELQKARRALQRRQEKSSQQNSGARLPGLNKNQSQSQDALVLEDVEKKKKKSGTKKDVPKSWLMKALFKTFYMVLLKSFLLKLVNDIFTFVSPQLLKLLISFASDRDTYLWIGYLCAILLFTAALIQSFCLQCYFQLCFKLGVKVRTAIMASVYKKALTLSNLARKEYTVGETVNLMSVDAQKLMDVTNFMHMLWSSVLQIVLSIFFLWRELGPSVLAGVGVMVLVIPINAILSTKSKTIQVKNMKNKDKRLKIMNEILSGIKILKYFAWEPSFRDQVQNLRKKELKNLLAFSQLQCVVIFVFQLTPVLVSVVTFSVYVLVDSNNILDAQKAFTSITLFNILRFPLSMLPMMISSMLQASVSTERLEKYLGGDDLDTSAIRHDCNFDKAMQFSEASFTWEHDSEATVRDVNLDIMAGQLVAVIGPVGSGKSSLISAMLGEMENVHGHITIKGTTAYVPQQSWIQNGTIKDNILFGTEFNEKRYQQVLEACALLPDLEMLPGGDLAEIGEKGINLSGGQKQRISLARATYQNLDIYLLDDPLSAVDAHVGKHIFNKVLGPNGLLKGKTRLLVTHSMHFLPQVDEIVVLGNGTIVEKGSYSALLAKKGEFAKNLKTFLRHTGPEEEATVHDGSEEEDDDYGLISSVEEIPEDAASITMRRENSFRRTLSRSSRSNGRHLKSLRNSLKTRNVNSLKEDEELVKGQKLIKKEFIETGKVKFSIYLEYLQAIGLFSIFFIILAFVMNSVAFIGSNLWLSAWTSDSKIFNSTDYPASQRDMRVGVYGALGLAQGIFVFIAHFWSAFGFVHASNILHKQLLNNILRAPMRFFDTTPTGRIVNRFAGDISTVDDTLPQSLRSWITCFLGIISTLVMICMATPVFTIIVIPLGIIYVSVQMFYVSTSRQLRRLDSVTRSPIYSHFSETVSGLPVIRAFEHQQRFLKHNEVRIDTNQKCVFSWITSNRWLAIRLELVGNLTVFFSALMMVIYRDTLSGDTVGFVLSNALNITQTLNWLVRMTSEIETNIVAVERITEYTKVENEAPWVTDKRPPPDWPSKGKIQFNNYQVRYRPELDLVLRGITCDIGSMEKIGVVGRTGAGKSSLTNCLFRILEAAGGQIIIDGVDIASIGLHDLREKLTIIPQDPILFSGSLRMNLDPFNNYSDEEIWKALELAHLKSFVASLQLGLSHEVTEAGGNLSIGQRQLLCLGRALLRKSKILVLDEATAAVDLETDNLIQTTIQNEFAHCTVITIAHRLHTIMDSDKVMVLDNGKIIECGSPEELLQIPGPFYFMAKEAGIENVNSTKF

MATE2K = target: T3, MATE2K (Homo sapiens, UniProt Q86VL8); assay type: in vitro ADME
T3 construct: No ESHDG27; host or cells: HEK293
T3 sequence (Q86VL8 1-566 isoform Q86VL8-3): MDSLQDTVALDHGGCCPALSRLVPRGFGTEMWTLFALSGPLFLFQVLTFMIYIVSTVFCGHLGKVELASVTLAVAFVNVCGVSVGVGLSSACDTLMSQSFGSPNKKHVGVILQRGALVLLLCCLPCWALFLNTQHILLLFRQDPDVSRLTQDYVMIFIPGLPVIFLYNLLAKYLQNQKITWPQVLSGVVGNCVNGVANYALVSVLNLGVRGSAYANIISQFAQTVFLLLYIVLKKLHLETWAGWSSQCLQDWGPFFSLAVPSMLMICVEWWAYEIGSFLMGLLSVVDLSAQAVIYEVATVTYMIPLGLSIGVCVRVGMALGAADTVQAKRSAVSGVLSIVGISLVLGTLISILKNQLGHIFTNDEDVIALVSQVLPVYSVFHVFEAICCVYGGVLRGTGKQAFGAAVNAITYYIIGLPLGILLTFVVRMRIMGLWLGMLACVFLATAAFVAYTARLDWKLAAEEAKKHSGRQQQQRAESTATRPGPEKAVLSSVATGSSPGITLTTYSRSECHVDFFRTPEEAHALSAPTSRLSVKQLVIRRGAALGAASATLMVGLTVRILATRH

[4] = design: method as in PMID 35087031; settings: 180 mg, once daily, patients; cited from earlier work
[5] = tested on: phosphorylation of ALK, AKT, ERK, STAT3 in NCI-H3122 cells; experiment: Western blot of ALK and downstream signaling phosphorylation; assay type: cell-based, human; settings: 2 h incubation
Experimental: In general, the cells were exposed to the drug and were harvested for western blot analysis. SDS-PAGE was used to separate the proteins of interest, which were then transferred to a nitrocellulose (NC) filtration membrane and soaked in a blocking solution [5% non-fat dry milk in tris-buffered saline with Tween 20 (TBST)] for 1 h at room temperature. Thereafter, the membrane was probed overnight with primary antibodies at 4℃ and washed three times with TBST. The corresponding secondary antibody diluent was added, incubated at room temperature for 1 h, and washed 3 times with TBST. After adding the enhanced chemiluminescence developer to the NC filtration membrane, it is developed in the imaging system (ChemiDoc™ XRS^+, BIO-RAD). See Supplementary Table 2 for details of the antibodies used.

[6] = human, HEK293 cells expressing OAT1, probe ATV, 1 μM, read-out: Inhibition rate
[7] = human, HEK293 cells expressing OAT3, probe ATV, 1 μM, read-out: Inhibition rate

Question: What does the source list for COc1cc(N2CCC3(CCN(C)CC3)CC2)ccc1Nc1ncc(Cl)c(Nc2ccccc2P(C)(C)=O)n1 [Iruplinalkib]?
Answer: substrate of BCRP (P-gp/BCRP/MRP2; Caco-2): not for breast cancerresistance protein (BCRP); substrate of P-gp (P-gp/BCRP/MRP2; Caco-2): transported substrate; Exhaust Ratio Mean (P-gp/BCRP/MRP2; Iruplinalkib 0.5 µM as substrate, with Ko143 10 µM): 20.95; Exhaust Ratio Mean (P-gp/BCRP/MRP2; Iruplinalkib 5 µM as substrate, with Ko143 10 µM): 26.14; Exhaust Ratio Mean (P-gp/BCRP/MRP2; Iruplinalkib 5 µM as substrate, with Verapamil 50 µM): 2.626; efflux ratio at 0.5 µM (P-gp/BCRP/MRP2; Caco-2): 20.3; efflux ratio at 5 µM (P-gp/BCRP/MRP2; Caco-2): 84.2; efflux ratio at 50 µM (P-gp/BCRP/MRP2; Caco-2): 8.02; efflux ratio at 0.5 µM (P-gp/BCRP/MRP2; Caco-2, with Elacridar 10 µM): 2.81; efflux ratio at 5 µM (P-gp/BCRP/MRP2; Caco-2, with Elacridar 10 µM): 0.605; efflux ratio at 50 µM (P-gp/BCRP/MRP2; Caco-2, with Elacridar 10 µM): 0.614; efflux ratio at 50 µM (P-gp/BCRP/MRP2; Caco-2, with Ko143 10 µM): 9.89; efflux ratio at 0.5 µM (P-gp/BCRP/MRP2; Caco-2, with Verapamil 50 µM): 3.46; efflux ratio at 50 µM (P-gp/BCRP/MRP2; Caco-2, with Verapamil 50 µM): 1.95; remaining rates in plasma after incubation for 5 h [1]: 95–109.3%; recovery ([1]; CD-1 (mouse), SD (rat), Beagle (dog), plasma, read-out: recovery rates in the dialysis device): 81.8 to 99.9%; inhibitor of OAT1 (OAT1; HEK293): can not be its inhibitor; inhibition at 0.5 μM (OAT1; [6]): 26.7%; inhibition at 5 μM (OAT1; [6]): 22.5%; inhibition at 50 μM (OAT1; [6]): 31.9%; inducer of CYP1A2 (CYP1A2): not an inducer; inhibition at 0.5 μM (MATE1 [2]): 46.4%; inhibition at 5 μM (MATE1 [2]): 94.5%; inhibition at 50 μM (MATE1 [2]): 112%; IC50 (AUR2): 1080 ± 106 nM; Uptake transport activity, Net value (MATE1 [3]; 0.5 μM): 532.9 pmol/mg protein/min; Uptake transport activity, Net value (MATE1 [3]; 5 μM): 55.01 pmol/mg protein/min; Uptake transport activity, Net value (MATE1 [3]; 50 μM): -114.5 pmol/mg protein/min; inducer of CYP2B6 (CYP2B6; 10 µM, human hepatocytes from three donors): not an inducer; CYP2B6 gene expression, folds of expression (CYP2B6; donor 1, 0.1 µM): 0.798 fold; CYP2B6 gene expression, folds of expression (CYP2B6; donor 1, 1 µM): 1.36 fold; CYP2B6 gene expression, folds of expression (CYP2B6; donor 1, 10 µM): 2.62 fold; CYP2B6 gene expression, folds of expression (CYP2B6; donor 2, 0.1 µM): 0.862 fold; CYP2B6 gene expression, folds of expression (CYP2B6; donor 2, 1 µM): 0.926 fold; CYP2B6 gene expression, folds of expression (CYP2B6; donor 2, 10 µM): 4.02 fold; CYP2B6 gene expression, folds of expression (CYP2B6; donor 3, 0.1 µM): 0.526 fold; CYP2B6 gene expression, folds of expression (CYP2B6; donor 3, 1 µM): 1.13 fold; CYP2B6 gene expression, folds of expression (CYP2B6; donor 3, 10 µM): 0.602 fold; inhibitory effect on OAT3 (OAT3; HEK293): no significant inhibitory effect; inhibition at 0.5 μM (OAT3; [7]): 26.7%; inhibition at 5 μM (OAT3; [7]): 22.5%; inhibition at 50 μM (OAT3; [7]): 31.9%; efflux inhibitor of MRP2 (MRP2): not an efflux inhibitor; inhibition at 0.1 μM (MRP2; probe CDCF 5 μM, MRP2, substrate CDCF 5 μM, inhibitor 0.1 μM, read-out: Inhibition rate): -7.3%; inhibition at 0.3 μM (MRP2; probe CDCF 5 μM, MRP2, substrate CDCF 5 μM, inhibitor 0.3 μM, read-out: Inhibition rate): -8.8%; inhibition at 1 μM (MRP2; probe CDCF 5 μM, MRP2, substrate CDCF 5 μM, inhibitor 1 μM, read-out: Inhibition rate): -4.5%; inhibition at 3 μM (MRP2; probe CDCF 5 μM, MRP2, substrate CDCF 5 μM, inhibitor 3 μM, read-out: Inhibition rate): -4.2%; inhibition at 10 µM (MRP2; probe CDCF, MRP2, substrate CDCF 5 μM, inhibitor 10 μM, read-out: Inhibition rate): -3.8%; inhibition at 30 μM (MRP2; probe CDCF, MRP2, substrate CDCF 5 μM, inhibitor 30 μM, read-out: Inhibition rate): -2.8%; inhibition at 100 μM (MRP2; probe CDCF, MRP2, substrate CDCF 5 μM, inhibitor 100 μM, read-out: Inhibition rate): -7.3%; inhibition of MATE2K (MATE2K): stronger inhibitor; free steady-state average concentration (Cavg,ss) [4]: 127 nM; phosphorylation level of STAT3 [5]: not STAT3; phosphorylation levels of ALK, AKT, ERK [5]: reduced

From PMC10140010 (Investigational New Drugs, 2023)
